The results in this text go back to US20240116985A1, “STAPLED PEPTIDES AND METHODS THEREOF” (priority 2020, published 2024).

Structures are written as SMILES.

In the assay the target is T1, full-length beta-Catenin (Uniprot ID P35222) (Homo sapiens, UniProt P35222).
T1 construct: 10 nM full-length beta-Catenin (Uniprot ID P35222)
T1 sequence (P35222 1-781): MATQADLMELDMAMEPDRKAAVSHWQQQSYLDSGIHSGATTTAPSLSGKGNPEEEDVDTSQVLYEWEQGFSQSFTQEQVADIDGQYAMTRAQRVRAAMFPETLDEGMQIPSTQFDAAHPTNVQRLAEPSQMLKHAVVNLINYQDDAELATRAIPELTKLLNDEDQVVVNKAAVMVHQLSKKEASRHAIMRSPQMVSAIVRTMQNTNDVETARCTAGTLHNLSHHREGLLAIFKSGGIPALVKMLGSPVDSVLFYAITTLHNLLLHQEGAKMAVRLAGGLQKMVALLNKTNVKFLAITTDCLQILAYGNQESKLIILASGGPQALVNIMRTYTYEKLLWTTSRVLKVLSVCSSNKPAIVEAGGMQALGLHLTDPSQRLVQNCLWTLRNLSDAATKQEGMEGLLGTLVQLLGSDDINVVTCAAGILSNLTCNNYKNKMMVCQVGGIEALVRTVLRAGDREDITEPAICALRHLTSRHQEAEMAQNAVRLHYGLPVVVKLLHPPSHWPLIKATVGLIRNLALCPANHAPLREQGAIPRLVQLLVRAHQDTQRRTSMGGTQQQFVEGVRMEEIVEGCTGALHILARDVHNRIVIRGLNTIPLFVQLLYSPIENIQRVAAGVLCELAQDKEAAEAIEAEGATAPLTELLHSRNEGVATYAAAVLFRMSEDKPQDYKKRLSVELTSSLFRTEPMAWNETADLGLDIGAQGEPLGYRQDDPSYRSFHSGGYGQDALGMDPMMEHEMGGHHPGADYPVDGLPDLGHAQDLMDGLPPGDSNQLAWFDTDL
As to the kind of experiment: Fluorescence polarization IC50 (beta-catenin / 5FAM-TCF4 10-53 competition). The class given is binding. The conditions noted are these: fluorescence polarization; read-out: beta-Catenin FP IC50. Background: Fluorescence polarisation rises when a labelled molecule tumbles more slowly, as on binding a larger partner.

The IC50 is the concentration that inhibits the measured activity by half. Take `CC(=O)N1CCC[C@]12CC=CCCCC1(CCCC=CCCCOC(=O)N3CC[C@@](C(=O)N[C@@H](Cc4ccccc4)C(=O)N[C@@H](Cc4csc5ccccc45)C(=O)N[C@@H](CCC(N)=O)C(N)=O)(C3)NC(=O)[C@H](CC(C)C)NC(=O)[C@H](Cc3ccccc3)NC(=O)[C@H](C)NC(=O)[C@H](CCCCNC(C)C)NC(=O)[C@H](Cc3c[nH]cn3)NC(=O)[C@H](CC(=O)O)NC1=O)NC(=O)[C@H](CC1CCCCC1)NC(=O)[C@H](CC(N)=O)NC2=O` (stereo partly drawn) [I-2348, Ac-PL3-Asn-Cha-B5-Asp-His-iPrLys-Ala-Phe-Leu-PyrS2-Phe-BztA-Gln-NH2]: the concentration for half-maximal inhibition (IC50) was 179 nM.

With `CC(=O)N1CCC[C@]12CC=CCCCC1(CCCC=CCCCOC(=O)N3CC[C@@](C(=O)N[C@@H](Cc4ccccc4)C(=O)N[C@@H](Cc4csc5ccccc45)C(=O)N[C@@H](CCC(N)=O)C(N)=O)(C3)NC(=O)[C@H](CC(C)C)NC(=O)[C@H](Cc3ccccc3)NC(=O)[C@H](C)NC(=O)[C@H](CCCCNC(C)C)NC(=O)[C@H](Cc3c[nH]cn3)NC(=O)[C@H](CC(=O)O)NC1=O)NC(=O)[C@H](CC1CCCCC1)NC(=O)[C@H](CC(N)=O)NC2=O` (stereo partly drawn) [I-2349, Ac-PL3-Asn-Cha-B5-Asp-His-iPrLys-Ala-Phe-Leu-PyrS2-Phe-BztA-Gln-NH2], the IC50 is 1160 nM.

Turning to `CC(=O)N1CCC[C@]12CC=CCCCC1(CCCC=CCCCOC(=O)N3CC[C@@](C(=O)N[C@@H](Cc4ccccc4)C(=O)N[C@@H](Cc4csc5ccccc45)C(=O)N[C@@H](Cc4c[nH]cn4)C(N)=O)(C3)NC(=O)[C@H](CC(C)C)NC(=O)[C@H](Cc3ccccc3)NC(=O)[C@H](C)NC(=O)[C@H](CCCCNC(C)C)NC(=O)[C@H](CCC(N)=O)NC(=O)[C@H](CC(=O)O)NC1=O)NC(=O)[C@H](CC1CCCCC1)NC(=O)[C@H](CC(N)=O)NC2=O` (stereo partly drawn) [I-2351, Ac-PL3-Asn-Cha-B5-Asp-Gln-iPrLys-Ala-Phe-Leu-PyrS2-Phe-BztA-His-NH2], the IC50 is 187 nM.

Turning to `CC(=O)N1CCC[C@]12CC=CCCCC1(CCCC=CCCCOC(=O)N3CC[C@@](C(=O)N[C@@H](Cc4ccccc4)C(=O)N[C@@H](Cc4csc5ccccc45)C(=O)N[C@@H](C)C(N)=O)(C3)NC(=O)[C@H](CC(C)C)NC(=O)[C@H](Cc3ccccc3)NC(=O)[C@H](C)NC(=O)[C@H](CCCCNC(C)C)NC(=O)[C@H](CCC(N)=O)NC(=O)[C@H](CC(=O)O)NC1=O)NC(=O)[C@H](CC1CCCCC1)NC(=O)[C@H](CC(N)=O)NC2=O` (stereo partly drawn) [I-2352, Ac-PL3-Asn-Cha-B5-Asp-Gln-iPrLys-Ala-Phe-Leu-PyrS2-Phe-BztA-Ala-NH2], the IC50 worked out at 211 nM.

As to `CC(=O)N1CCC[C@]12CC=CCCCC1(CCCC=CCCCOC(=O)N3CC[C@@](C(=O)N[C@@H](Cc4ccccc4)C(=O)N[C@@H](Cc4csc5ccccc45)C(=O)N[C@@H](CCC(N)=O)C(N)=O)(C3)NC(=O)[C@H](CC(C)C)NC(=O)[C@H](Cc3ccccc3)NC(=O)[C@H](C)NC(=O)[C@H](CCCCNC(C)C)NC(=O)[C@H](CCC(N)=O)NC(=O)[C@H](CC(=O)O)NC1=O)NC(=O)[C@H](CC1CCCCC1)NC(=O)[C@H](CCO)NC2=O` (stereo partly drawn) [I-2353, Ac-PL3-Hse-Cha-B5-Asp-Gln-iPrLys-Ala-Phe-Leu-PyrS2-Phe-BztA-Gln-NH2], the IC50 turned out to be 2760 nM.

On to `CC(=O)N1CCC[C@]12CC=CCCCC1(CCCC=CCCCOC(=O)N3CC[C@@](C(=O)N[C@@H](Cc4ccccc4)C(=O)N[C@@H](Cc4csc5ccccc45)C(=O)N[C@@H](CCC(N)=O)C(N)=O)(C3)NC(=O)[C@H](CC(C)C)NC(=O)[C@H](Cc3ccccc3)NC(=O)[C@H](C)NC(=O)[C@H](CCO)NC(=O)[C@H](CCC(N)=O)NC(=O)[C@H](CC(=O)O)NC1=O)NC(=O)[C@H](CC1CCCCC1)NC(=O)[C@H](CC(N)=O)NC2=O` (stereo partly drawn) [I-2355, Ac-PL3-Asn-Cha-B5-Asp-Gln-Hse-Ala-Phe-Leu-PyrS2-Phe-BztA-Gln-NH2], for which the IC50 was determined as 417 nM.
